Data from US20240415819A1, “MACROCYCLIC COMPOUNDS AS PROTEASOME SUBUNIT BETA TYPE-5 INHIBITORS” (Lead Discovery Center GmbH, priority 2021, published 2024).

Experiments:
[1] = target: T1, β5 subunit of the human immunoproteasome (IPS) (Homo sapiens, UniProt P28062); assay: β5 inhibition assay, human immunoproteasome (Suc-LLVY-AMC); type: biochemical; details: IC50 class, Suc-LLVY-AMC substrate
T1 construct: purchased Boston Biochem E-370
Summary of the method: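 β5 activity is read as liberated AMC fluorescence (355/460 nm) after 4 h dark reaction at RT with 22.6 μM Suc-LLVY-AMC, stopped by 1 μM bortezomib. Beforehand, 1 nM human IPS and compound sat 10 min at RT in HEPES pH 7.5 buffer containing NaCl, 0.02% SDS and DTT.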

[2] = system: hPMBC; assay: Chymotrypsin-like ProteasomeGlo assay in hPBMC; type: cell-based; details: Homo sapiens; read-out: Pglo hPBMC
Summary of the method: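 IC50 derived from luminescent chymotrypsin-like proteasome activity (Suc-LLVY-Glo substrate plus luciferin detection reagent). Measured after 105 min compound exposure at 37 °C, 5% CO2. Cells were human B cells purified from buffy-coat PBMC.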

| IC50 [1] [nM] | IC50 [2] [nM] | SMILES |
| --- | --- | --- |
| 100 to 500 | 500 to 1000 | Cc1ccc2cc1CNC(=O)[C@@H](CCc1ccccc1)NC(=O)[C@@H](NC(=O)OCc1ccccc1)CC(=O)N1CCC[C@H](CCO2)C1 [Compound 289, benzyl ((13R,9R,12S)-5^4-methyl-8,11,14-trioxo-9-phenethyl-4-oxa-7,10-diaza-1(3,1)-piperidina-5(1,3)-benzenacyclotetradecaphane-12-yl)carbamate] |
| < 100 |  | Cc1ccc2cc1CNC(=O)[C@H](CCc1ccccc1)NC(=O)[C@@H](NC(=O)c1ccccn1)CC(=O)N1CCCC(CCO2)C1 (stereo partly drawn) [Compound 40, N-((9S,12S)-5^4-methyl-8,11,14-trioxo-9-phenethyl-4-oxa-7,10-diaza-1(3,1)-piperidina-5(1,3)-benzenacyclotetradecaphane-12-yl)picolinamide] |
| < 100 | < 100 | CC(=O)N[C@H]1CC(=O)N2CCCC(CCOc3ccc(C)c(c3)CNC(=O)C(CCc3cnccn3)NC1=O)C2 (stereo partly drawn) [Compound 564, N-((12S)-5^4-methyl-8,11,14-trioxo-9-(2-(pyrazin-2-yl)ethyl)-4-oxa-7,10-diaza-1(3,1)-piperidina-5(1,3)-benzenacyclotetradecaphane-12-yl)acetamide] |
| < 100 |  | Cc1ccc2cc1CNC(=O)[C@H](CCc1ccccc1)NC(=O)[C@@H](NS(C)(=O)=O)CC(=O)N1CCCC(CCO2)C1 (stereo partly drawn) [Compound 37, N-((9S,12S)-5^4-methyl-8,11,14-trioxo-9-phenethyl-4-oxa-7,10-diaza-1(3,1)-piperidina-5(1,3)-benzenacyclotetradecaphane-12-yl)methanesulfonamide] |
| < 100 | < 100 | Cc1ccc2cc1CNC(=O)[C@H](CCc1ccccc1)NC(=O)[C@@H](NC(=O)C1CCNCC1(F)F)CC(=O)N1CCCC(CCO2)C1 (stereo partly drawn) [Compound 152, 3,3-difluoro-N-((9S,12S)-5^4-methyl-8,11,14-trioxo-9-phenethyl-4-oxa-7,10-diaza-1(3,1)-piperidina-5(1,3)-benzenacyclotetradecaphane-12-yl)piperidine-4-carboxamide] |
| < 100 | < 100 | Cc1ccc2cc1CNC(=O)[C@H](CCc1ccccc1)NC(=O)[C@@H](NC(=O)CN1CCOCC1)CC(=O)N1CCCC(CCO2)C1 (stereo partly drawn) [Compound 88, N-((9S,12S)-5^4-methyl-8,11,14-trioxo-9-phenethyl-4-oxa-7,10-diaza-1(3,1)-piperidina-5(1,3)-benzenacyclotetradecaphane-12-yl)-2-morpholinoacetamide] |
| < 100 | < 100 | CC(=O)N[C@H]1CC(=O)N2CCCC(CCOc3ccc(C)c(c3)CNC(=O)C(c3cnn(CCCC(=O)O)c3)NC1=O)C2 (stereo partly drawn) [Compound 568, 4-(4-((12S)-12-acetamido-5^4-methyl-8,11,14-trioxo-4-oxa-7,10-diaza-1(3,1)-piperidina-5(1,3)-benzenacyclotetradecaphane-9-yl)-1H-pyrazol-1-yl)butanoic acid] |
| < 100 | < 100 | CCC(CC)(CO)C(=O)N[C@H]1CC(=O)N2CCCC(CCOc3ccc(C)c(c3)CNC(=O)[C@H](CCc3ccccc3)NC1=O)C2 (stereo partly drawn) [Compound 285, 2-ethyl-2-(hydroxymethyl)-N-((9S,12S)-5^4-methyl-8,11,14-trioxo-9-phenethyl-4-oxa-7,10-diaza-1(3,1)-piperidina-5(1,3)-benzenacyclotetradecaphane-12-yl)butanamide] |
| < 100 |  | Cc1ccc2cc1CNC(=O)[C@H](CCc1ccccc1)NC(=O)[C@@H](NC(=O)CCc1cccc(F)c1)CC(=O)N1CCCC(CCO2)C1 (stereo partly drawn) [Compound 25, 3-(3-fluorophenyl)-N-((9S,12S)-5^4-methyl-8,11,14-trioxo-9-phenethyl-4-oxa-7,10-diaza-1(3,1)-piperidina-5(1,3)-benzenacyclotetradecaphane-12-yl)propanamide] |
| < 100 | < 100 | Cc1ccc2cc1CNC(=O)[C@H](CCc1ccccc1)NC(=O)[C@@H](NC(=O)C1CCC(C(F)(F)F)N1)CC(=O)N1CCCC(CCO2)C1 (stereo partly drawn) [Compound 157, N-((9S,12S)-5^4-methyl-8,11,14-trioxo-9-phenethyl-4-oxa-7,10-diaza-1(3,1)-piperidina-5(1,3)-benzenacyclotetradecaphane-12-yl)-5-(trifluoromethyl)pyrrolidine-2-carboxamide] |
| < 100 | < 100 | Cc1ccc2cc1CNC(=O)[C@H](CCc1ccccc1)NC(=O)[C@@H](NC(=O)CN1CCNCC1)CC(=O)N1CCCC(CCO2)C1 (stereo partly drawn) [Compound 126, N-((9S,12S)-5^4-methyl-8,11,14-trioxo-9-phenethyl-4-oxa-7,10-diaza-1(3,1)-piperidina-5(1,3)-benzenacyclotetradecaphane-12-yl)-2-(piperazin-1-yl)acetamide] |
| < 100 | 100 to 500 | Cc1ccc2cc1CNC(=O)[C@H](CCc1ccccc1)NC(=O)[C@@H](N)CC(=O)N1CCCC(CCO2)C1 (stereo partly drawn) [Compound 8, (9S,12S)-12-amino-5^4-methyl-9-phenethyl-4-oxa-7,10-diaza-1(3,1)-piperidina-5(1,3)-benzenacyclotetradecaphane-8,11,14-trione] |
| < 100 |  | Cc1ccc2cc1CNC(=O)[C@H](CCc1ccccc1)NC(=O)[C@@H](Nc1ccccn1)CC(=O)N1CCCC(CCO2)C1 (stereo partly drawn) [Compound 36, (9S,12S)-5^4-methyl-9-phenethyl-12-(pyridin-2-ylamino)-4-oxa-7,10-diaza-1(3,1)-piperidina-5(1,3)-benzenacyclotetradecaphane-8,11,14-trione] |
| < 100 |  | Cc1ccc2cc1CNC(=O)[C@H](CCc1ccccc1)NC(=O)[C@@H](NC(=O)c1ccccc1)CC(=O)N1CCCC(CCO2)C1 (stereo partly drawn) [Compound 26, N-((9S,12S)-5^4-methyl-8,11,14-trioxo-9-phenethyl-4-oxa-7,10-diaza-1(3,1)-piperidina-5(1,3)-benzenacyclotetradecaphane-12-yl)benzamide] |
| < 100 |  | Cc1ccc2cc1CNC(=O)[C@H](CCc1ccccc1)NC(=O)[C@@H](NC(=O)c1ccncc1)CC(=O)N1CCCC(CCO2)C1 (stereo partly drawn) [Compound 42, N-((9S,12S)-5^4-methyl-8,11,14-trioxo-9-phenethyl-4-oxa-7,10-diaza-1(3,1)-piperidina-5(1,3)-benzenacyclotetradecaphane-12-yl)isonicotinamide] |

The next lines start with the compound.

| SMILES | IC50 [1] [nM] | IC50 [2] [nM] |
| --- | --- | --- |
| Cc1ccc2cc1CNC(=O)[C@H](CCc1ccccc1)NC(=O)[C@@H](NC(=O)CCc1ccccc1-c1ccccc1)CC(=O)N1CCCC(CCO2)C1 (stereo partly shown) [Compound 177] | < 100 | < 100 |
| CC(=O)N[C@H]1CCCC(=O)N2CCOC(CCOc3ccc(C)c(c3)CNC(=O)[C@H](CCc3ccccc3)NC1=O)C2 (stereo partly drawn) [Compound 186, N-((9S,12S)-5^4-methyl-8,11,16-trioxo-9-phenethyl-4-oxa-7,10-diaza-1(2,4)-morpholina-5(1,3)-benzenacyclohexadecaphane-12-yl)acetamide] | < 100 | 100 to 500 |
| Cc1ccc2cc1CNC(=O)C(CCc1cccnc1)NC(=O)CCC(=O)N1CCCC(CCO2)C1 (stereo not shown) [Compound 51, 5^4-methyl-9-(2-(pyridin-3-yl)ethyl)-4-oxa-7,10-diaza-1(3,1)-piperidina-5(1,3)-benzenacyclotetradecaphane-8,11,14-trione] | < 100 |  |
| Cc1ccc2cc1CNC(=O)[C@H](CCc1ccccc1)NC(=O)CCCCC(=O)N1CCCC(CCO2)C1 (stereo partly drawn) [Compound 16, (9S)-5^4-methyl-9-phenethyl-4-oxa-7,10-diaza-1(3,1)-piperidina-5(1,3)-benzenacyclohexadecaphane-8,11,16-trione] | < 100 |  |
| Cc1ccc2cc1CNC(=O)[C@H](CCc1ccccc1)NC(=O)[C@@H](NC(=O)OCc1ccccc1)CCC(=O)N1CCCC(CCO2)C1 (stereo partly drawn) [Compound 199, benzyl ((9S,12S)-5^4-methyl-8,11,15-trioxo-9-phenethyl-4-oxa-7,10-diaza-1(3,1)-piperidina-5(1,3)-benzenacyclopentadecaphane-12-yl)carbamate] | < 100 | < 100 |
| Cc1ccc2cc1CNC(=O)[C@H](CCc1ccccc1)NC(=O)[C@@H](Nc1nc3ccccc3[nH]1)CC(=O)N1CCCC(CCO2)C1 (stereo partly drawn) [Compound 45, (9S,12S)-12-((1H-benzo[d]imidazol-2-yl)amino)-5^4-methyl-9-phenethyl-4-oxa-7,10-diaza-1(3,1)-piperidina-5(1,3)-benzenacyclotetradecaphane-8,11,14-trione] | < 100 |  |
| Cc1ccc2cc1CNC(=O)[C@H](CCc1ccccc1)NC(=O)[C@@H](N1C(=O)CCC1=O)CC(=O)N1CCCC(CCO2)C1 (stereo partly drawn) [Compound 43, (9S,12S)-12-(2,5-dioxopyrrolidin-1-yl)-5^4-methyl-9-phenethyl-4-oxa-7,10-diaza-1(3,1)-piperidina-5(1,3)-benzenacyclotetradecaphane-8,11,14-trione] | < 100 |  |
| Cc1ccc2cc1CNC(=O)[C@H](Cc1ccccc1)NC(=O)CCC(=O)N1CCCC(CCO2)C1 (stereo partly drawn) [Compound 79, (9S)-9-benzyl-5^4-methyl-4-oxa-7,10-diaza-1(3,1)-piperidina-5(1,3)-benzenacyclotetradecaphane-8,11,14-trione] | < 100 |  |
| CCOC(=O)N[C@H]1CC(=O)N2CCCC(CCOc3ccc(C)c(c3)CNC(=O)[C@H](CCc3ccccc3)NC1=O)C2 (stereo partly drawn) [Compound 39, ethyl ((9S,12S)-5^4-methyl-8,11,14-trioxo-9-phenethyl-4-oxa-7,10-diaza-1(3,1)-piperidina-5(1,3)-benzenacyclotetradecaphane-12-yl)carbamate] | < 100 |  |
| Cc1ccc2cc1CNC(=O)[C@H](CCc1ccccc1)NC(=O)CCC(=O)N1CCCC(CCO2)C1 (stereo partly drawn) [Compound 13, (9S)-5^4-methyl-9-phenethyl-4-oxa-7,10-diaza-1(3,1)-piperidina-5(1,3)-benzenacyclotetradecaphane-8,11,14-trione] | < 100 |  |
